In BindingDB's records for doi:10.1016/j.bmc.2013.02.042 (The City University of New York, 2013):

Target: Sphingosine kinase 1 (Homo sapiens, UniProt Q9NYA1)
Assay: Competitive inhibition of SK1 (unknown origin) in presence of ATP

Sphingosine kinase 1, sequence (Q9NYA1 whole entry): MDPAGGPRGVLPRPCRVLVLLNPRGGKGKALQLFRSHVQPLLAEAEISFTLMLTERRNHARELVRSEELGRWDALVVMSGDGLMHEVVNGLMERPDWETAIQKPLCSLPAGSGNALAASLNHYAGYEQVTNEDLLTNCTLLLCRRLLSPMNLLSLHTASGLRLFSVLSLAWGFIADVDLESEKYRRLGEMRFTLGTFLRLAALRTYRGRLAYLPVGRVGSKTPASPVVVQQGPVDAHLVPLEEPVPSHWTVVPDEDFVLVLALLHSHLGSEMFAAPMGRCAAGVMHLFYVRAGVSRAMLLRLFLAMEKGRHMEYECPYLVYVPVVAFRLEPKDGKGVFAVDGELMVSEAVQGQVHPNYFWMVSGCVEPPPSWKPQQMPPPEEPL

Ki: 10 µM
Compound: CCCCCCCCc1ccc(CC[C@](N)(/C=C/P(=O)(O)O)CO)cc1
